Results as given in patent US12065433B2, “Positive allosteric modulators of the muscarinic acetylcholine receptor M1” (Vanderbilt University, priority 2018, dated 2024).

Molecular target: T1, human mAChR M1 (Homo sapiens, UniProt P11229)
T1 sequence (P11229 1-460): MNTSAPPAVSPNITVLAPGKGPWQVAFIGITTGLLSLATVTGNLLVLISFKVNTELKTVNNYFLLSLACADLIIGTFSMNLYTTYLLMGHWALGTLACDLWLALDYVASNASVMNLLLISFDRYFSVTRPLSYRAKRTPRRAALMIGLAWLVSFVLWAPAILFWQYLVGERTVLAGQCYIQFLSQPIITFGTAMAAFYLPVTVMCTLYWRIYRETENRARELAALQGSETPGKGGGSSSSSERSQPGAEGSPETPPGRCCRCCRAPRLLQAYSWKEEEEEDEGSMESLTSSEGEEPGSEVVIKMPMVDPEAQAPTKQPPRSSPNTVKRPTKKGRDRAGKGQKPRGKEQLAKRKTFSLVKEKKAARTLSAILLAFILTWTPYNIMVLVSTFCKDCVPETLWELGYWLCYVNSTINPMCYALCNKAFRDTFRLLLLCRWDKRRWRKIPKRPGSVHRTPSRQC
Test: mAChR M1 cell-based functional assay (calcium mobilization, PAM mode)
Settings: CHO-K1 cells stably expressing hM1, calcium flux (Fluo-4); for EC50: concentration-dependent increase in the EC20 acetylcholine response; for Emax: potentiation of EC20 acetylcholine response
Text: Chinese hamster ovary (CHO-K1) cells stably expressing rat (r)M1 were purchased from the American Type Culture Collection and cultured according to their indicated protocol. CHO cells stably expressing human (h)M2, hM3, and hM5 were described previously (Levey, et al., 1991); hM1 and hM4 cDNAs were purchased from Missouri S&T cDNA Resource; rM4 cDNA was provided by T. I. Bonner (National Institutes of Health, Bethesda, MD). rM2 and rM3 were cloned from a rat brain cDNA library and sequence verified. hM1, rM2, rM3, hM4, and rM4 cDNAs were used to stably transfect CHO-K1 cells purchased from the American Type Culture Collection using Lipofectamine2000. To make stable rM2, hM2, rM3, hM4, and rM4 cell lines for use in calcium mobilization assays, these cells also were stably transfected with a chimeric G-protein (Gqi5) (provided by B. R. Conklin, University of California, San Francisco) using Lipofectamine 2000. rM1, hM1, rM3, hM3, rM5, and hM5 cells were grown in Ham's F-12 medium containing 10% heat-inactivated fetal bovine serum (FBS), 20 mM HEPES, and 50 μg/mL G418 sulfate. rM2-Gqi5, hM2-Gqi5, and hM4-Gqi5 cells were grown in the same medium also containing 500 μg/mL Hygromycin B. Stable rM4-Gqi5 cells were grown in DMEM containing 10% heat-inactivated FBS, 20 mM HEPES, 400 μg/mL G418 sulfate, and 500 μg/mL Hygromycin B.
For high throughput measurement of agonist-evoked increases in intracellular calcium, CHO-K1 cells stably expressing muscarinic receptors were plated in growth medium lacking G418 and hygromycin at 15,000 cells/20 μL/well in Greiner 384-well black-walled, tissue culture (TC)-treated, clear-bottom plates (VWR). Cells were incubated overnight at 37° C. and 5% CO2. The next day, cells were washed using an ELX 405 (BioTek) with four washes (80 μL) of assay buffer then aspirated to 20 μL. Next, 20 μL of 16 μM Fluo-4/acetoxymethyl ester (Invitrogen, Carlsbad, CA) prepared as a 2.3 mM stock in DMSO and mixed in a 1:1 ratio with 10% (w/v) Pluronic F-127 and diluted in assay buffer was added to the wells and the cell plates were incubated for 50 min at 37° C. and 5% CO2. Dye was removed by washing with the ELX 405 (four […], washes of assay buffer) then aspirated to 20 μL. Compound master plates were formatted in an 11 point CRC format (1:3 dilutions) in 100% DMSO with a starting concentration of 10 mM using the BRAVO liquid handler (Agilent). Test compound CRCs were then transferred to daughter plates (240 nL) using the Echo acoustic plate reformatter (Labcyte, Sunnyvale, CA) and then diluted into assay buffer (40 μL) to a 2× stock using a Thermo Fisher Combi (Thermo Fisher Scientific, Waltham, MA).
Calcium flux was measured using the Functional Drug Screening System (FDSS) 6000 (Hamamatsu Corporation, Tokyo, Japan) as an increase in the fluorescent static ratio. Compounds were applied to cells (20 μL, 2×) using the automated system of the FDSS 6000 at 4 s into the 300 s protocol and the data were collected at 1 Hz. At 144 s into the 300 s protocol, 10 μL of an EC20 concentration of the muscarinic receptor agonist acetylcholine was added (5×), followed by the addition of 12 μL an EC80 concentration of acetylcholine at the 230 s time point (5×). Agonist activity was analyzed as a concentration-dependent increase in calcium mobilization upon compound addition. Emax values for agonist activity are expressed relative to the maximum for acetylcholine. Positive allosteric modulator activity was analyzed as a concentration-dependent increase in the EC20 acetylcholine response. Antagonist activity was analyzed as a concentration-dependent decrease in the EC80 acetylcholine response. Concentration-response curves were generated using a four-parameter logistical equation in XLfit curve fitting software (IDBS, Bridgewater, NJ) for Excel (Microsoft, Redmond, WA) or Prism (GraphPad Software, Inc., San Diego, CA). […]

EC50	Emax	SMILES
44 nM	72%	[2H]C1([2H])Oc2c(C(=O)N[C@H]3CCOC[C@@H]3O)cc(Cc3ccc(-n4cccn4)cc3)c(C)c2O1 [Compound 22, 6-(4-(1H-pyrazol-1-yl)benzyl)-N-((3R,4S)-3-hydroxytetrahydro-2H-pyran-4-yl)-7-methylbenzo[d][1,3]dioxole-2,2-d2-4-carboxamide]
210 nM	75%	[2H]C1([2H])Oc2c(C(=O)N[C@H]3CCCC[C@@H]3O)cc(Cc3ccc(-n4cccn4)cc3)c(C)c2O1 [Compound 23, 6-(4-(1H-pyrazol-1-yl)benzyl)-N-((1S,2S)-2-hydroxycyclohexyl)-7-methylbenzo[d][1,3]dioxole-2,2-d2-4-carboxamide]
1000 nM	70%	[2H]C1([2H])Oc2c(C(=O)N[C@H]3CCC[C@@H]3O)cc(Cc3ccc(-n4cccn4)cc3)c(C)c2O1 [Compound 24, 6-(4-(1H-pyrazol-1-yl)benzyl)-N-((1S,2S)-2-hydroxycyclopentyl)-7-methylbenzo[d][1,3]dioxole-2,2-d2-4-carboxamide]
